Patent US20060292683A1, “Cross-beta structures on microbial organisms” (Crossbeta Biosciences B.V., priority 2005, published 2006)

B1: factor XII: full-length purified factor XII (protein, UniProt P00748 1-615, looked up)
chain: MRALLLLGFLLVSLESTLSIPPWEAPKEHKYKAEEHTVVLTVTGEPCHFPFQYHRQLYHKCTHKGRPGPQPWCATTPNFDQDQRWGYCLEPKKVKDHCSKHSPCQKGGTCVNMPSGPHCLCPQHLTGNHCQKEKCFEPQLLRFFHKNEIWYRTEQAAVARCQCKGPDAHCQRLASQACRTNPCLHGGRCLEVEGHRLCHCPVGYTGAFCDVDTKASCYDGRGLSYRGLARTTLSGAPCQPWASEATYRNVTAEQARNWGLGGHAFCRNPDNDIRPWCFVLNRDRLSWEYCDLAQCQTPTQAAPPTPVSPRLHVPLMPAQPAPPKPQPTTRTPPQSQTPGALPAKREQPPSLTRNGPLSCGQRLRKSLSSMTRVVGGLVALRGAHPYIAALYWGHSFCAGSLIAPCWVLTAAHCLQDRPAPEDLTVVLGQERRNHSCEPCQTLAVRSYRLHEAFSPVSYQHDLALLRLQEDADGSCALLSPYVQPVCLPSGAARPSETTLCQVAGWGHQFEGAEEYASFLQEAQVPFLSLERCSAPDVHGSSILPGMLCAGFLEGGTDACQGDSGGPLVCEDQAAERRLTLQGIISWGSGCGDRNKPGVYTDVAYYLAWIREHTVS
modifications: full-length

What was measured:
S. aureus Newman [1] = experiment: Binding of dyes to S. aureus Newman by visual inspection; set-up: species or system Staphylococcus aureus; details: S. aureus Newman after incubation with Thioflavin T, Congo red, tPA and IgIV
Experimental: (§1) Staphylococcus aureus Newman, which was a kind gift of Dr. Jos van Strijp and Dr Kok van Kessel (Dept. of Microbiology, University Medical Center Utrecht, the Netherlands) was plated on a blood plate from a stock stored at −70° C., and incubated overnight at 37° C. The plate was stored at 4° C. Escherichia coli strain TOP10 (Invitrogen, 44-0301) was plated on agar with Luria broth medium from a −80° C. glycerol stock, and incubated overnight at 37° C. The plate was stored at 4° C. Overnight cultures of 5 ml in Luria broth medium were grown at 37° C. with vigorous shaking and aeration, by streaking a single colony with the tip of a pipet and transferring the tip to the medium in a 15-ml tube. The cell density in overnight cultures was determined by measuring the absorbance at 600 nm (A600=1 is equivalent with 0.8×10^9 cells/ml). Cells were pelleted by centrifugation for one minute at 16,000*g or for ten minutes at 3,000*g. Medium was discarded. One half of the cells were resuspended in PBS in 1/10 of the original medium volume (10× concentration of the cells) by pipetting and swirling. These cells were used as reference cells. […]
(§2) Binding of cross-beta structure binding compounds to E. coli TOP10 and S. aureus Newman after incubation of the bacteria with Thioflavin T, Congo red, tPA and IgIV, as described in the Materials & Methods section, was determined in two ways. […]

S. aureus Newman [2] = experiment: ROS production by bEnd.3 endothelial cells upon exposure to S. aureus Newman; type: cell-based, Staphylococcus aureus; details: 1.13×10^8 S. aureus cells/ml with either 1.25 mg/ml IgIV, 0.8 mg/ml finger domains, 220 μM Congo red, 220 μM ThT or 1.1 μM tPA
Excerpt: (§3) Glycated proteins comprising a cross-beta structure and amyloid-β induce inflammatory responses and are believed to contribute to the pathogenesis of certain protein misfolding diseases (diabetes type II, Alzheimer's disease). In general, misfolded proteins induce cellular dysfunction with enhanced expression or activation of inflammatory signals. The effect of misfolded proteins on endothelial cell (dys)function is, for example, measured by determining the levels of reactive oxygen species or nitric oxide or tissue factor in response to misfolded proteins. Human umbilical vein endothelial cells (HUVEC) that are isolated and cultured, according to standard protocols, are used, or other endothelial cells such as the murine microvascular bEnd.3 endothelial cell line. The levels of reactive oxygen species (ROS), like, for example, nitric oxide, are monitored using fluorescent probes, such as CM-H2DCF-DA. Alternatively, cell viability is monitored by standard MTT-assay. The levels of tissue factor expression is determined using a chromogenic assay with purified factor VII, purified factor X and chromogenic substrate S-2765 (Chromogenix), using cell lysates. For example, bEnd.3 cells are seeded at 120,000 cells/well of a 96-well culture dish, and cultured overnight. […]
(§4) To assess production of reactive oxygen species by cultured mouse microvascular bEnd.3 endothelial cells (ECs), cells are seeded at 128,000 cells/well of a 96-well plate (Costar, 3904). […] For the analysis of ROS production, 10 μl of tester samples and controls are added to separate wells, and fluorescence is measured every two minutes for 70 minutes upon excitation at 488 nm with the emission wavelength set to 538 nm. […]

Escherichia coli TOP10 = experiment: ROS production by bEnd.3 endothelial cells upon exposure to E. coli TOP10; type: cell-based; details: 8.1×10^7 E. coli cells/ml with either 1.25 mg/ml IgIV, 0.8 mg/ml finger domains, 220 μM Congo red, 220 μM ThT or 1.1 μM tPA
Excerpt: as §3, §4

E. coli TOP10 = experiment: Binding of dyes to E. coli TOP10 by visual inspection; set-up: species or system Escherichia coli; details: E. coli TOP10 after incubation with Thioflavin T, Congo red, tPA and IgIV
Experimental: as §1, §2

[3] = tested on: protein and peptide aggregates with cross-β structure conformation; experiment: ELISA binding to immobilized peptides with cross-β structure conformation; details: immobilized Aβ, FP13, TTR11, LAM12 or IAPP; GST-tagged F domains
Excerpt: FIG. 2: Binding of tPA, factor XII, fibronectin and finger domains thereof to compounds with cross-β structure. Panels A-C: Full-length purified tPA (Panel A), factor XII (Panel B) and fibronectin (Panel C) bind to immobilized peptides with cross-β structure conformation, in an ELISA.
Previously, we established that tissue-type plasminogen activator specifically interacts with protein and peptide aggregates that comprise a cross-β structure conformation, a structural element found in amyloid-like polypeptide assemblies (Bouma et al., 2003; Kranenburg et al., 2002). Now, we expanded this analysis to other proteins that resemble tPA domain architecture and we separated domains of tPA. Binding of full-length tPA, factor XII and fibronectin, as well as of fibronectin type I (finger, F) domains of tPA and factor XII and F4-5 of fibronectin, to protein and peptide aggregates with cross-β structure conformation was analyzed in an ELISA. […] Binding of tPA and factor XII was established for immobilized amyloid-β(1-40) (Aβ) with amyloid-like properties, fibrin peptide FP13, that encompasses the tPA activating sequence 148KRLEVDIDIKIR160 (SEQ ID NO:——————) of the fibrin α-chain, TTR11, which is an 11 amino-acid residues peptide from transthyretin that forms cross-β structure, and LAM12, which is a 12 amino-acid residues peptide from laminin that forms cross-β structure (FIG. 2, Panels A and B). Negative controls were freshly dissolved, monomerized Aβ and non-amyloid murine islet amyloid polypeptide (mIAPP). For fibronectin, human amyloid IAPP is depicted instead of LAM12 (FIG. 2, Panel C).

Molecule	binding of dye to bacterium cells, visual inspection (S. aureus Newman [1])	effect on ROS production by bEnd.3 ECs, co-incubation (S. aureus Newman [2])	effect on ROS production by bEnd.3 ECs, co-incubation (Escherichia coli TOP10)	binding of dye to bacterium cells, visual inspection (E. coli TOP10)	binding to cross-β structure rich compounds in ELISA [3]
Nc1c(/N=N/c2ccc(-c3ccc(/N=N/c4cc(S(=O)(=O)O)c5ccccc5c4N)cc3)cc2)cc(S(=O)(=O)O)c2ccccc12 [Congo red]	intense red	strongly inhibits ROS expression	reverse ROS production	–	–
Cc1ccc2c(c1)sc(-c1ccc(N(C)C)cc1)[n+]2C.[Cl-] [Thioflavin T]	–	slightly decrease ROS production	to some extent	bound to the cells	–
tPA: tissue-type plasminogen activator (Actilyse, Boehringer-Ingelheim)	–	does not influence S. aureus induced ROS production	not able to reduce ROS production	–	bind specifically
fibronectin: full-length purified fibronectin	–	–	–	–	bind specifically
fibronectin F4-5: recombinant fibronectin type I domains 4-5 of fibronectin with carboxy terminal GST-tag	–	–	–	–	bind specifically
B1	–	–	–	–	bind specifically
